Data as given in patent publication US9284333B2, “Fused pyrroledicarboxamides and their use as pharmaceuticals” (SANOFI, priority 2012, dated 2016).

Each compound was assayed against Human TASK-1 channels (Homo sapiens (Human), UniProt O14649) (assay: Determination of the activity on the TASK-1 channel in Xenopus oocytes (two-microelectrode voltage clamp)). Conditions: compound concentration 5 μM.
Format: cell-based
Procedure: Determination of the activity on the TASK-1 channel in Xenopus oocytes
Human TASK-1 channels were expressed in Xenopus oocytes. For this purpose, oocytes were isolated from Xenopus laevis and defoliculated. Subsequently, TASK-1-encoding RNA synthesized in vitro was injected into the oocytes. After two days of TASK-1 protein expression, TASK-1 currents were measured by two-microelectrode voltage clamp. Data were acquired and analyzed using a TEC-10cx amplifier (NPI Electronic, Tamm, Germany) connected to an ITC-16 interface (Instrutech Corp., Long Island, USA) and Pulse software (HEKA Elektronik, Lambrecht, Germany). Oocytes were clamped to −90 mV and TASK-1 mediated currents were measured during 500 ms voltage pulses to 40 mV. Oocytes were continuously superfused with ND96 buffer containing 96 mM sodium chloride, 2 mM potassium chloride, 1.8 mM calcium chloride, 1 mM magnesium chloride, 5 mM 4-(2-hydroxyethyl)-piperazine-1-ethanesulfonic acid (HEPES; pH adjusted to 7.4 with sodium hydroxide). All experiments were performed at room temperature. Test compounds were consecutively added to the bath solution at rising concentrations. Compound effects were calculated as the percentage inhibition of TASK-1 control current before compound addition. IC50 values were obtained by fitting the data to the general dose-response equation.

Chain of Human TASK-1 channels (O14649 whole entry): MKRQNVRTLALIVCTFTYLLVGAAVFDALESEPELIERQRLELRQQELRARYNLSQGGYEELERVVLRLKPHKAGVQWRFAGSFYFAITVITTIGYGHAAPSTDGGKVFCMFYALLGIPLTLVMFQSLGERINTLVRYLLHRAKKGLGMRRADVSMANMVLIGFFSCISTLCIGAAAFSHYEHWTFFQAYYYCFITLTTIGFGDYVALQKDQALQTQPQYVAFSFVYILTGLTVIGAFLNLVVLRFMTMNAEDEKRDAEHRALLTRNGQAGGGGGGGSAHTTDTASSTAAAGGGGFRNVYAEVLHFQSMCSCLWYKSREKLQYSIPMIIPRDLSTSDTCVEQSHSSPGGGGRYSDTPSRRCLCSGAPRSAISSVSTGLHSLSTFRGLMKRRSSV

Row | SMILES | inhibition at 5 µM
1 | CC[C@@H](NC(=O)c1cc(C(=O)Nc2cncc(F)c2)n2c1CCCC2)c1ccccc1 [16ne, 5,6,7,8-Tetrahydro-indolizine-1,3-dicarboxylic acid 3-[(5-fluoro-pyridin-3-yl)-amide] 1-[((R)-1-phenyl-propyl)-amide]] | 83%
2 | CC[C@@H](NC(=O)c1cc(C(=O)N2CCCCC2C)n2c1COCC2)c1ccc(C(F)(F)F)nc1 (stereo partly drawn) [16pc, 6-(2-Methyl-piperidine-1-carbonyl)-3,4-dihydro-1H-pyrrolo[2,1-c][1,4]oxazine-8-carboxylic acid [(R)-1-(6-trifluoromethyl-pyridin-3-yl)-propyl]-amide] | 53%
3 | CC[C@H](NC(=O)c1cc(C(=O)N[C@H](C)c2ncccn2)c2n1CCOC2)c1ccccc1 [16kg, 3,4-Dihydro-1H-pyrrolo[2,1-c][1,4]oxazine-6,8-dicarboxylic acid 6-[((S)-1-phenyl-propyl)-amide] 8-[((R)-1-pyrimidin-2-yl-ethyl)-amide]] | 70%

Further lines, results first:

Row | inhibition at 5 µM | SMILES
4 | 47% | CC[C@@H](NC(=O)c1cc(C(=O)N2CCC[C@@H]2C)n2c1COCC2)c1cnc(C(F)(F)F)nc1 [16bt, 6-((S)-2-Methyl-pyrrolidine-1-carbonyl)-3,4-dihydro-1H-pyrrolo[2,1-c][1,4]oxazine-8-carboxylic acid [(R)-1-(2-trifluoromethyl-pyrimidin-5-yl)-propyl]-amide]
5 | 85% | CC[C@H](NC(=O)c1cc(C(=O)N2CCC[C@@H]2C)n2c1COCC2)c1c(F)cc(C(F)(F)F)cc1F [16cm, 6-((S)-2-Methyl-pyrrolidine-1-carbonyl)-3,4-dihydro-1H-pyrrolo[2,1-c][1,4]oxazine-8-carboxylic acid [(S)-1-(2,6-difluoro-4-trifluoromethyl-phenyl)-propyl]-amide]

Same assay, conditions: human TASK-1 expressed in Xenopus oocytes, room temperature; read-out: IC50 value for TASK-1 inhibition

Row | SMILES | IC50
6 | CC[C@@H](NC(=O)c1cc(C(=O)NCc2cc(OC)cc(OC)c2)n2c1COCC2)c1ccccc1 [16gz, 3,4-Dihydro-1H-pyrrolo[2,1-c][1,4]oxazine-6,8-dicarboxylic acid 6-(3,5-dimethoxy-benzylamide) 8-[((R)-1-phenyl-propyl)-amide]] | 2.2 µM
7 | CC[C@@H](NC(=O)c1cc(C(=O)N2CCC[C@@H]2C)n2c1COCC2)c1cccnc1C(F)(F)F [16r, 6-((S)-2-Methyl-pyrrolidine-1-carbonyl)-3,4-dihydro-1H-pyrrolo[2,1-c][1,4]oxazine-8-carboxylic acid [(R)-1-(2-trifluoromethyl-pyridin-3-yl)-propyl]-amide] | 1.9 µM
8 | CC[C@@H](NC(=O)c1cc(C(=O)N[C@@H](CO)C(C)C)n2c1COCC2)c1ccccc1 [16jj, 3,4-Dihydro-1H-pyrrolo[2,1-c][1,4]oxazine-6,8-dicarboxylic acid 6-[((R)-1-hydroxymethyl-2-methyl-propyl)-amide] 8-[((R)-1-phenyl-propyl)-amide]] | 4.4 µM
9 | CC[C@@H](NC(=O)c1cc(C(=O)NCC(=O)OC(C)C)n2c1COCC2)c1ccccc1 [16iw, {[8-((R)-1-Phenyl-propylcarbamoyl)-3,4-dihydro-1H-pyrrolo[2,1-c][1,4]oxazine-6-carbonyl]-amino}-acetic acid isopropyl ester] | 0.62 µM
10 | CC[C@@H](NC(=O)c1cc(C(=O)N2CCC[C@@H]2C)n2c1COCC2)c1ccc(C(F)(F)F)nc1Cl [16cc, 6-((S)-2-Methyl-pyrrolidine-1-carbonyl)-3,4-dihydro-1H-pyrrolo[2,1-c][1,4]oxazine-8-carboxylic acid [(R)-1-(2-chloro-6-trifluoromethyl-pyridin-3-yl)-propyl]-amide] | 0.065 µM
11 | CC[C@@H](NC(=O)c1cc(C(=O)NCc2ncccn2)c2n1CCOC2)c1ccccc1 [16jm, 3,4-Dihydro-1H-pyrrolo[2,1-c][1,4]oxazine-6,8-dicarboxylic acid 6-[((R)-1-phenyl-propyl)-amide] 8-[(pyrimidin-2-ylmethyl)-amide]] | 1.5 µM
12 | CCOC(=O)C[C@H]1CCCN1C(=O)c1cc(C(=O)N[C@H](C)c2ccc(F)cc2)n2c1COCC2 [16dl, ((R)-1-{6-[(R)-1-(4-Fluoro-phenyl)-ethylcarbamoyl]-3,4-dihydro-1H-pyrrolo[2,1-c][1,4]oxazine-8-carbonyl}-pyrrolidin-2-yl)-acetic acid ethyl ester] | 0.062 µM
13 | CC[C@@H](NC(=O)c1cc(C(=O)N2CCC[C@@H]2C)n2c1COCC2)c1ccccn1 [16ph, 6-((S)-2-Methyl-pyrrolidine-1-carbonyl)-3,4-dihydro-1H-pyrrolo[2,1-c][1,4]oxazine-8-carboxylic acid ((R)-1-pyridin-2-yl-propyl)-amide] | 0.65 µM
14 | CC[C@@H](NC(=O)c1cc(C(=O)N2CCOC[C@@H]2C)c2n1CCOC2)c1ccccc1 [16kh, 8-((S)-3-Methyl-morpholine-4-carbonyl)-3,4-dihydro-1H-pyrrolo[2,1-c][1,4]oxazine-6-carboxylic acid ((R)-1-phenyl-propyl)-amide] | 0.99 µM
15 | CC[C@@H](NC(=O)c1cc(C(=O)NC(C)c2ccno2)n2c1COCC2)c1ccccc1 (stereo partly drawn) [16hh, 3,4-Dihydro-1H-pyrrolo[2,1-c][1,4]oxazine-6,8-dicarboxylic acid 6-[(1-isoxazol-5-yl-ethyl)-amide] 8-[((R)-1-phenyl-propyl)-amide]] | 1 µM
16 | CC[C@@H](NC(=O)c1cc(C(=O)NCc2cnccn2)n2c1COCC2)c1ccc(F)cc1Cl [16no, 3,4-Dihydro-1H-pyrrolo[2,1-c][1,4]oxazine-6,8-dicarboxylic acid 8-{[(R)-1-(2-chloro-4-fluoro-phenyl)-propyl]-amide} 6-[(pyrazin-2-ylmethyl)-amide]] | 0.17 µM

Next, values leading:

Row | IC50 | SMILES
17 | 0.69 µM | CC[C@@H](NC(=O)c1cc(C(=O)NC(C)C)n2c1COCC2)c1ccccc1 [16ge, 3,4-Dihydro-1H-pyrrolo[2,1-c][1,4]oxazine-6,8-dicarboxylic acid 6-isopropylamide 8-[((R)-1-phenyl-propyl)-amide]]
18 | 1.31 µM | CC[C@@H](NC(=O)c1cc(C(=O)NCc2cccc(S(C)(=O)=O)c2)n2c1COCC2)c1ccccc1 [16gv, 3,4-Dihydro-1H-pyrrolo[2,1-c][1,4]oxazine-6,8-dicarboxylic acid 6-(3-methanesulfonyl-benzylamide) 8-[((R)-1-phenyl-propyl)-amide]]
19 | 2.8 µM | CC[C@@H](NC(=O)c1cc(C(=O)N2CCC[C@H]2C)n2c1COCC2)c1ccc(C(F)(F)F)nc1 [16ny, 6-((R)-2-Methyl-pyrrolidine-1-carbonyl)-3,4-dihydro-1H-pyrrolo[2,1-c][1,4]oxazine-8-carboxylic acid [(R)-1-(6-trifluoromethyl-pyridin-3-yl)-propyl]-amide]
20 | 4.3 µM | CC[C@@H](NC(=O)c1cc(C(=O)N[C@H](CC)c2cccc(NS(C)(=O)=O)c2)n2c1COCC2)c1ccccc1 [16ri, 3,4-Dihydro-1H-pyrrolo[2,1-c][1,4]oxazine-6,8-dicarboxylic acid 6-{[(R)-1-(3-methanesulfonylamino-phenyl)-propyl]-amide} 8-[((R)-1-phenyl-propyl)-amide]]
21 | 1.9 µM | CC[C@@H](NC(=O)c1cc(C(=O)N[C@H](CO)C(C)C)n2c1COCC2)c1ccccc1 [16iz, 3,4-Dihydro-1H-pyrrolo[2,1-c][1,4]oxazine-6,8-dicarboxylic acid 6-[((S)-1-hydroxymethyl-2-methyl-propyl)-amide] 8-[((R)-1-phenyl-propyl)-amide]]
